Active and inactive are the calls of the source.
Key:
[1] = alpha-synuclein stem-loop translation blockers – luminescence, H4 neuroglioblastoma cells, dose confirmation, confirmation (AID 2454); assay type: functional, cell-based;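 further: H4 neuroglioblastoma cells carrying an alpha-synuclein 5'UTR luciferase reporter; potency for inhibition of the luciferase signal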
cells [2] = assay type: functional, cell-based
[3] = luciferase reporter signal reduction – luminescence, H4-C neuroglioblastoma cells, dose response (AID 2458); assay type: functional, cell-based;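 further: H4 neuroglioblastoma cells stably carrying a luciferase reporter gene fusion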
[4] = NIH3T3 cell viability loss – ATP luminescence, mouse fibroblasts, counter-screen, dose response (AID 2010); assay type: functional, cell-based;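 further: cells exposed to compound for about 90 hours before reading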
Paired box protein Pax-8 = Paired box protein Pax-8 (Homo sapiens, UniProt Q06710); assay: PAX8 transcriptional activity inhibition in RMG-I – RMG-I cells, luciferase, cherry-pick, dose response (AID 687027); assay type: functional, cell-based;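 further: luciferase reporter driven by Pax8 target thyroperoxidase promoter measured by SteadyGlo luminescence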
[5] = Luminescence Cell-Based Dose Response HTS to Identify Inhibitors of 5'UTR Stem-Loop Driven Prion Protein mRNA Translation in H4 Neuroglioblastoma Cells. [Related pubchem assays: 1827 (Project Summary), 1813 (Primary HTS)]; assay type: functional
[6] = alpha-synuclein stem-loop luciferase translation blockers – H4 neuroglioma cells, luminescence, confirmation (AID 1988); assay type: functional, cell-based
[7] = luciferase reporter signal suppression in cells – H4 neuroglioma cells, luminescence, dose response (AID 1990); assay type: functional, cell-based
[8] = Trypanosoma cruzi growth suppression in host cells – NIH3T3 host cells, beta-gal luminescence, confirmation (AID 2044); assay type: functional, cell-based;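 further: intracellular parasites grown in NIH/3T3 mouse fibroblasts as host cells; luminescent beta-galactosidase reporter signal from transgenic T. cruzi replicating inside host cells; inhibitors lower the luminescence signal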
[9] = molecular target: T1, Alkaline phosphatase, tissue-nonspecific isozyme (Homo sapiens, UniProt P05186)
T1 sequence (P05186 whole entry): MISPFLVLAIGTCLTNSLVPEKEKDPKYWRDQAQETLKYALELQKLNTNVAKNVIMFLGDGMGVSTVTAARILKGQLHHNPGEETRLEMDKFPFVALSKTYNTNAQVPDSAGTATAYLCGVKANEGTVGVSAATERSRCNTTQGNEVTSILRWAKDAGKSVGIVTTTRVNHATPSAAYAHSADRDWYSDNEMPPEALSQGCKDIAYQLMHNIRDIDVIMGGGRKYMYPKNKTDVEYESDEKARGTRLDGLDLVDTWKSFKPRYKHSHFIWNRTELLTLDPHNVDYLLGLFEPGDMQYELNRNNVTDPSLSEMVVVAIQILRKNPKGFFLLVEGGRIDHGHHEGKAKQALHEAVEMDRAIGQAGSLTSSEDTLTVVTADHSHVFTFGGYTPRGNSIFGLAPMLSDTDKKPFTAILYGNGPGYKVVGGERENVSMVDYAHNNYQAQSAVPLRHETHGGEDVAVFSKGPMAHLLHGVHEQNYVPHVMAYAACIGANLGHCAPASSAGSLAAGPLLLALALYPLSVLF

[10] = molecular target: Photoreceptor-specific nuclear receptor (Homo sapiens, UniProt Q9Y5X4); assay type: functional;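 further: potency for compounds that break the NR2E3 corepressor complex and count as activators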
Sequence of Photoreceptor-specific nuclear receptor (Q9Y5X4 whole entry): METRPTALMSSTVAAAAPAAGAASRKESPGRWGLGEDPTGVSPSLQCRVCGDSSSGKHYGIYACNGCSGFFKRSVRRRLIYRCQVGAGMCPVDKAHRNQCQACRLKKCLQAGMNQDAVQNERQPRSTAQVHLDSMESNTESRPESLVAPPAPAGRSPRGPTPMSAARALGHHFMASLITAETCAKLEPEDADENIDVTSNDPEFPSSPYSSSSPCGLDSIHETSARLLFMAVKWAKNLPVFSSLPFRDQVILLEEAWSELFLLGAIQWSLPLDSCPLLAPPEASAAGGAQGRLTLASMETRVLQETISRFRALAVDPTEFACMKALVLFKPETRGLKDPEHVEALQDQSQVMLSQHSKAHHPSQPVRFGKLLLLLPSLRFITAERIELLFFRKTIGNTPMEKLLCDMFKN

Cytochrome P450 2C19 = Cytochrome P450 2C19 (Homo sapiens, UniProt P33261); assay: Cytochrome panel assay with activity outcomes. Panel member name: p450-cyp2c19 Compounds with AC50 equal or less than 10 uM are considered active; assay type: functional; settings: read-out: AC50
Sequence of Cytochrome P450 2C19 (P33261 whole entry): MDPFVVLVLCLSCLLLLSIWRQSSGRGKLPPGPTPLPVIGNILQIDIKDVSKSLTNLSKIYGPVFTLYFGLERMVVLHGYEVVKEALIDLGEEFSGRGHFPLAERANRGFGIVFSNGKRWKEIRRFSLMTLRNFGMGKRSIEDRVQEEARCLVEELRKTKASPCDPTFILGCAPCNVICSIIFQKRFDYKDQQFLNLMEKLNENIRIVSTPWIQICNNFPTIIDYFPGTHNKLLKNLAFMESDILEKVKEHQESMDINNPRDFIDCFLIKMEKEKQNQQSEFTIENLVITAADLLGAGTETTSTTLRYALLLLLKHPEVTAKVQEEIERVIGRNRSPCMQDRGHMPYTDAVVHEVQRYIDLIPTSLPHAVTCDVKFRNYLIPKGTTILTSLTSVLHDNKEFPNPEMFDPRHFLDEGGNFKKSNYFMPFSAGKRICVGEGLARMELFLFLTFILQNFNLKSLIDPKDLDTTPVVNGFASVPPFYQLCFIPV

cells [11] = assay: cells
Major prion protein = Major prion protein (Homo sapiens, UniProt P04156); assay type: functional, cell-based
[12] = molecular target: Peroxisome proliferator-activated receptor gamma/Nuclear receptor corepressor 2 (Homo sapiens, UniProt P37231+Q9Y618); assay type: functional
Sequence of Peroxisome proliferator-activated receptor gamma/Nuclear receptor corepressor 2 (P37231 whole entry): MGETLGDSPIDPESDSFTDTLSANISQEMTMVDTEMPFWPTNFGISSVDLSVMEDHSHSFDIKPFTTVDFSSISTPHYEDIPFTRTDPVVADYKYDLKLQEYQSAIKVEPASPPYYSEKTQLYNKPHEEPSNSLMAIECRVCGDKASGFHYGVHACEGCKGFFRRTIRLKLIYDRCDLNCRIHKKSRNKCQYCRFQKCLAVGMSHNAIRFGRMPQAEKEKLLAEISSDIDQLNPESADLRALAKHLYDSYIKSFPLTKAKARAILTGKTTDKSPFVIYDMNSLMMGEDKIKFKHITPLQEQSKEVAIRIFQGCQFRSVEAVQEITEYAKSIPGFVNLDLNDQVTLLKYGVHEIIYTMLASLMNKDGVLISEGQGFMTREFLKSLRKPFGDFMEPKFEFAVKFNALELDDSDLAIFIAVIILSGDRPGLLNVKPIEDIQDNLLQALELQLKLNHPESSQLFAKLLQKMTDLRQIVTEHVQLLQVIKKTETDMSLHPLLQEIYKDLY
Sequence of Peroxisome proliferator-activated receptor gamma/Nuclear receptor corepressor 2 (Q9Y618 whole entry): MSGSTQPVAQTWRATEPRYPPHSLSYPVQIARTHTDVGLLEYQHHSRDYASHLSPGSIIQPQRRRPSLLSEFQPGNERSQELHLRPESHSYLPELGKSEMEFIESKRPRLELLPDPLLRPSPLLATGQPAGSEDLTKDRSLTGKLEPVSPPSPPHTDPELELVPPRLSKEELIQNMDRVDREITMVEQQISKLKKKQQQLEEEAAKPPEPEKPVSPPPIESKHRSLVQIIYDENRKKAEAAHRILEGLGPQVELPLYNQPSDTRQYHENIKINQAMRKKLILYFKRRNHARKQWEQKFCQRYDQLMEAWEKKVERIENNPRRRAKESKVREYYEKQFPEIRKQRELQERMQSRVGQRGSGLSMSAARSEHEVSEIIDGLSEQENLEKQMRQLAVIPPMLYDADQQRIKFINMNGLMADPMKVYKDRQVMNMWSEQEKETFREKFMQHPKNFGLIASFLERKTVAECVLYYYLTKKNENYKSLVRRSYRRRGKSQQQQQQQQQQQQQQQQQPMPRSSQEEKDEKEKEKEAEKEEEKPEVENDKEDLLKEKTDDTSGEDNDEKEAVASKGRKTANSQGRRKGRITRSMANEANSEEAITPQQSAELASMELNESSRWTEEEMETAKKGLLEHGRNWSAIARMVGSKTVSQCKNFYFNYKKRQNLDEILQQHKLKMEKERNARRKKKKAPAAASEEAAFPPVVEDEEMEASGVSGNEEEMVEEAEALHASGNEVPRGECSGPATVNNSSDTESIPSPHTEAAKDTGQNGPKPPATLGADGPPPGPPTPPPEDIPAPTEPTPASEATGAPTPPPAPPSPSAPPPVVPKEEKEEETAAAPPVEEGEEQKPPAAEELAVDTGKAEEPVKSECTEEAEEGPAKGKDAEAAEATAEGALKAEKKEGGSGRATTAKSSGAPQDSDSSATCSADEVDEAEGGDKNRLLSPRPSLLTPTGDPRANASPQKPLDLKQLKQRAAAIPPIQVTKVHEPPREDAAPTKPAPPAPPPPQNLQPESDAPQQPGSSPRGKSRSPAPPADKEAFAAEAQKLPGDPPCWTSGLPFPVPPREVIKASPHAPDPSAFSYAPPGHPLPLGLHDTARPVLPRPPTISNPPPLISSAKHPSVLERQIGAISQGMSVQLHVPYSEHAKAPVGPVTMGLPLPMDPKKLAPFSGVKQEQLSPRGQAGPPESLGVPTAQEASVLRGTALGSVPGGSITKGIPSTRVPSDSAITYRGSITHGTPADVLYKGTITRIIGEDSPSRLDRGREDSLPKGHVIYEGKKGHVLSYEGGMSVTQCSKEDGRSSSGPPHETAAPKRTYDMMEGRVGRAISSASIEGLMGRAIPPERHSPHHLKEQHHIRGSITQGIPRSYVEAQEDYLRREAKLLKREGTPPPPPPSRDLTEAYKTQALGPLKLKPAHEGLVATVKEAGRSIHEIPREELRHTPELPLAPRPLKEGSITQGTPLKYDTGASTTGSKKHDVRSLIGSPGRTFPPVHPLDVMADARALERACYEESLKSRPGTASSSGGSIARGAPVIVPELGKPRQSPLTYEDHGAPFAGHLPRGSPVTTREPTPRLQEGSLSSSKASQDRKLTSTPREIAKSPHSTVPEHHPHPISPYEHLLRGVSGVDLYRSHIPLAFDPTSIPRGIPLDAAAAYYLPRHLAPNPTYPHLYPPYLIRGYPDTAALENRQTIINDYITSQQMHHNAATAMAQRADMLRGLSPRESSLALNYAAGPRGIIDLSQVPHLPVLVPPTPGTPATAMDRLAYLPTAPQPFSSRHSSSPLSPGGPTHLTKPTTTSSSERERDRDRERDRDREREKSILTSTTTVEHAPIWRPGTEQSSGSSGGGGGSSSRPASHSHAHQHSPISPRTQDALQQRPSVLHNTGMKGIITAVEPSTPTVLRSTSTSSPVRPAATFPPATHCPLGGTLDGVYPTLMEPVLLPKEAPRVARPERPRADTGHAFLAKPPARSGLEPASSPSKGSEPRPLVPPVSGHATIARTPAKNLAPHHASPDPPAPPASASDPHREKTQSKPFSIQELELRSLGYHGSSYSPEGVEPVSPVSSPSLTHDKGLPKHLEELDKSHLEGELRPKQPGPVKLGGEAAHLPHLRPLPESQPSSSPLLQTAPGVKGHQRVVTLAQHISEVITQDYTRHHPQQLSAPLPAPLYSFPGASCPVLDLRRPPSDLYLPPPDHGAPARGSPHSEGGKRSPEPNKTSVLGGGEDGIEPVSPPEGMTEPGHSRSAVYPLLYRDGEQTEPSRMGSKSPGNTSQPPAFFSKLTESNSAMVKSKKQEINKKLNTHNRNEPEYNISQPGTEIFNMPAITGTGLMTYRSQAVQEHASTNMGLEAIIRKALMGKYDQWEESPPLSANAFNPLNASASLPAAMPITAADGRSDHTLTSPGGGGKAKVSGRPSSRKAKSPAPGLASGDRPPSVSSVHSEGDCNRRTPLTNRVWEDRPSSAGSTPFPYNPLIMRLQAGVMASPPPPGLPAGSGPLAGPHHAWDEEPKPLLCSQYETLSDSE

[13] = molecular target: T2, Kappa-type opioid receptor (Homo sapiens, UniProt P41145); assay type: functional
T2 sequence (P41145 whole entry): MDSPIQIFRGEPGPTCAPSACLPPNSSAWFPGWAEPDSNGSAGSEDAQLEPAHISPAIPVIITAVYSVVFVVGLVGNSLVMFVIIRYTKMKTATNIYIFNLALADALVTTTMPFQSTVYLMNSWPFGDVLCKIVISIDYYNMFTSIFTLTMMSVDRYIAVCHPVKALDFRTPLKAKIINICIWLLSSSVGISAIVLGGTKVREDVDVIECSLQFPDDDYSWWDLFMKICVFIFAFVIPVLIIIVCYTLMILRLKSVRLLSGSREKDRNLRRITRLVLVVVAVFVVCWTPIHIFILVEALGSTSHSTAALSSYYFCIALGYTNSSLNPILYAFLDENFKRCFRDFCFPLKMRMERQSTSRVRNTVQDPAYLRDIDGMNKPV

[14] = molecular target: T2, Kappa-type opioid receptor; assay type: functional; remark: listed apart in the source
Mu-type opioid receptor = Mu-type opioid receptor (Homo sapiens, UniProt P35372); assay: HTS Image-Based Screen for Agonists of the MOR Receptor. [Related pubchem assays (depositor defined):AID1777, AID1785, AID1786, AID2133]; assay type: functional;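 further: imaging of beta-arrestin GFP recruitment into spots after receptor activation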
[15] = molecular target: Peroxisome proliferator-activated receptor gamma/Nuclear receptor coactivator 3 (Homo sapiens, UniProt P37231); assay: (§1) TR-FRET dose response biochemical High Throughput Screening assay for agonists of the steroid receptor coactivator 3 (SRC-3) recruitment by the peroxisome proliferator-activated receptor gamma (PPAR gamma): non-selective agonists. [Related pubchem assays: 1301 (Confirmation screen.), 1048 (Primary screen.)]; assay type: functional
[16] = molecular target: Peroxisome proliferator-activated receptor gamma/Nuclear receptor coactivator 1 (Homo sapiens, UniProt P37231); assay: as §1, with “1 (SRC-1)” for “3 (SRC-3)”, “assays (depositor defined):AID1300, AID1808, AID504735, AID631]” for “assays: 1301 (Confirmation screen.), 1048 (Primary screen.)]”; assay type: protein assay
[17] = microbe, parasite or virus in culture; assay type: functional; settings: Mycobacterium tuberculosis
Beta-galactosidase = Beta-galactosidase (Escherichia coli, UniProt Q8VNN2); assay type: functional
[18] = molecular target: Sphingosine 1-phosphate receptor 1 (Homo sapiens, UniProt P21453); assay type: functional;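 further: Tango beta-arrestin reporter U2OS cells stimulated with S1P near its EC80; inhibitor potency meaning antagonism of receptor activation by the natural agonist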
[19] = viability loss in Vero cells – cytotoxicity control for Vif-APOBEC3G degradation inhibitor project, dose response (AID 1117358); assay type: functional; settings: Vero
[20] = molecular target: T3, Delta-type opioid receptor (Homo sapiens, UniProt P41143); assay: HTS Image-Based Screen for Antagonists of the DOR Receptor. [Related pubchem assays (depositor defined):AID1777, AID1785, AID1786, AID2133]; assay type: functional
T3 sequence (P41143 whole entry): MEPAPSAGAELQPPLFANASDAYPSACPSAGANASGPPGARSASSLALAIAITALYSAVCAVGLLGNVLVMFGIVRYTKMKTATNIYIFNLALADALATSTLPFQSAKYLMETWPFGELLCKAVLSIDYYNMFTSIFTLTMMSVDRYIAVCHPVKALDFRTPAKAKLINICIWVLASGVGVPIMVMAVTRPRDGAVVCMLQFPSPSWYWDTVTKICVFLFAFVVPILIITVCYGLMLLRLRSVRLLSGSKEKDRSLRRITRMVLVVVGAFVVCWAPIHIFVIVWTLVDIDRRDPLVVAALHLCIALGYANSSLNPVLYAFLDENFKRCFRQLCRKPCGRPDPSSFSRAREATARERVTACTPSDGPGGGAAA

[21] = molecular target: T3, Delta-type opioid receptor; assay: HTS Image-Based Screen for Agonists of the DOR Receptor. [Related pubchem assays (depositor defined):AID1777, AID1786, AID2133]; assay type: functional
[22] = molecular target: G-protein coupled receptor 55 (Homo sapiens, UniProt Q9Y2T6); assay: inhibition of LPI-stimulated GPR55 beta-arrestin translocation – imaging, U2OS, beta-arrestin-GFP, LPI agonist, primary screen (AID 2013); assay type: functional;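 further: antagonist potency measured as reduced agonist-driven arrestin aggregation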
[23] = molecular target: T4, Replicative DNA helicase DnaB (Mycobacterium tuberculosis, UniProt P9WMR3); assay: DnaB intein splicing inhibitors, dose response, biochemical, cell-free fluorescence (AID 449749); assay type: functional
T4 sequence (P9WMR3 whole entry): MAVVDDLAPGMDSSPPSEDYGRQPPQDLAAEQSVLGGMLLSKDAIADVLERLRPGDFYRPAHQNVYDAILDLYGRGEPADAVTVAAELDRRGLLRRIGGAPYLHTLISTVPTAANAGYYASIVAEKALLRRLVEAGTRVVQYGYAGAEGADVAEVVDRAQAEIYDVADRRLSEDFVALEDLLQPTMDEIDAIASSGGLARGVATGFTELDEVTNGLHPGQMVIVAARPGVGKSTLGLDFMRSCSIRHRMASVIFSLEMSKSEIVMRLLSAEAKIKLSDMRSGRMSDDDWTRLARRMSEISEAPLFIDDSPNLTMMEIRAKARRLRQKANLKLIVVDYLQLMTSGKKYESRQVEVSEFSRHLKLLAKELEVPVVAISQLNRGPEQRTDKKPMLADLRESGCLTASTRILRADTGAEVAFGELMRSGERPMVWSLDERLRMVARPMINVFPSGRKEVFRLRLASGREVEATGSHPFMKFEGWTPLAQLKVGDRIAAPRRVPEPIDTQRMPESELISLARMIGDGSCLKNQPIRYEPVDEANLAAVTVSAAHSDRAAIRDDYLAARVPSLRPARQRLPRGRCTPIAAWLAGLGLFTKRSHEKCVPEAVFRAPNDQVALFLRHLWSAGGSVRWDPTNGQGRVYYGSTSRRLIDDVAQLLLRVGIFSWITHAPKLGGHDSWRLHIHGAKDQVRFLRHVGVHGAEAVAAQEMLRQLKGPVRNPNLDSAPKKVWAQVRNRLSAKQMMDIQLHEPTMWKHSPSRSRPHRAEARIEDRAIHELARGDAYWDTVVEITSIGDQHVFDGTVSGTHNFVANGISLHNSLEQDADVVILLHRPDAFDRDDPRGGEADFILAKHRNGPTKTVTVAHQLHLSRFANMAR

INS1 = assay: INS-1E survival protection against cytokine death – cell-based, luminescence, retest, dose response (AID 449756); assay type: functional; settings: Rattus norvegicus;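 further: cell death triggered by IL-1 beta plus TNF-alpha plus IFN-gamma mixture; protective hits raise ATP signal compared with cytokine alone wells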
Protein RecA = molecular target: T5, Protein RecA (Mycobacterium tuberculosis, UniProt P9WHJ3); assay: Fluorescence Cell-Free Homogeneous Dose Retest to Identify Inhibitors of RecA-Intein Splicing Activity. [Related pubchem assays (depositor defined):AID2097, AID2223, AID489010, AID492950]; assay type: functional
T5 sequence (P9WHJ3 whole entry): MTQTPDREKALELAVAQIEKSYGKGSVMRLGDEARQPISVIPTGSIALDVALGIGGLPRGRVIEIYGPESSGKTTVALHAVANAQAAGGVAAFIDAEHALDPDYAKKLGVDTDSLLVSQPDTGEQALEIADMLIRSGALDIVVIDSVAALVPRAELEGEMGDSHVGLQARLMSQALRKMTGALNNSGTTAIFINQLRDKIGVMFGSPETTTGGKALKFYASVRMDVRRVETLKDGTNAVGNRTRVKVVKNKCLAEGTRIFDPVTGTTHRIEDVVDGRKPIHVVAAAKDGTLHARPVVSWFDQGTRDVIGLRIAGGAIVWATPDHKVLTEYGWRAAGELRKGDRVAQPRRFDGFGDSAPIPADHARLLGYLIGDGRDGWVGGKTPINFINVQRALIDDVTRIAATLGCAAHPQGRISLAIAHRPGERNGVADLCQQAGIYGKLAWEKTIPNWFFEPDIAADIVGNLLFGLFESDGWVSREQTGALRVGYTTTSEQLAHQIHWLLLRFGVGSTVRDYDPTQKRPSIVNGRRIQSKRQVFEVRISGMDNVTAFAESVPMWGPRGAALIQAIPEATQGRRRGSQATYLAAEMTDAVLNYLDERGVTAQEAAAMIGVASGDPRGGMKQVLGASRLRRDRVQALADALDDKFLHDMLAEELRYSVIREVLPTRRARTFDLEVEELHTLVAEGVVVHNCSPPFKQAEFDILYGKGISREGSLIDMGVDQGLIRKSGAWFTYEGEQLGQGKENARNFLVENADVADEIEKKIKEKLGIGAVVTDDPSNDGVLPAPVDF

[24] = molecular target: Peroxisome proliferator-activated receptor gamma/Nuclear receptor coactivator 2 (Homo sapiens, UniProt P37231); assay: TR-FRET dose response biochemical High Throughput Screening assay for agonists of the steroid receptor coactivator 2 (SRC-2) recruitment by the peroxisome proliferator-activated receptor gamma (PPAR gamma): non-selective agonists. [Related pubchem assays: 1297, 1032 ]; assay type: functional
[25] = molecular target: Sphingosine 1-phosphate receptor 4 (Homo sapiens, UniProt O95977); assay: Fluorescence dose response cell-based high throughput screening assay for antagonists of the Sphingosine 1-Phosphate Receptor 4 (S1P4). [Related pubchem assays: 1524 (Confirmation in triplicates.), 1510 (Primary screen.)]; assay type: functional
Sequence of Sphingosine 1-phosphate receptor 4 (O95977 whole entry): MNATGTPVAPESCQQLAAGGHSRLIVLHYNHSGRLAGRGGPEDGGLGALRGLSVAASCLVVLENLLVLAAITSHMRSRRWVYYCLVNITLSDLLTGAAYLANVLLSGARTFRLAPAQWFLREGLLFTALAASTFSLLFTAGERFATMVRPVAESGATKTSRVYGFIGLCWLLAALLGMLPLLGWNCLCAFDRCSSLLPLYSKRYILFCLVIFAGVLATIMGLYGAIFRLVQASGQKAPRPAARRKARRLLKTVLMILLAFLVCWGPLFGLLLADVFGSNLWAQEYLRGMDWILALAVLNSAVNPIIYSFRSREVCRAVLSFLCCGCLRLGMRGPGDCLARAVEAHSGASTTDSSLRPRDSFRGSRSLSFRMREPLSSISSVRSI

## CC(=O)OC(C)(C)/C=C/C(=O)C(C)(O)C1[C@H](O)C[C@@]2(C)C3CC=C4C(CC[C@@H](O)C4(C)C)[C@]3(CO)C(=O)C[C@]12C (stereo not given in full)
[1]
  EC50: 0.082 µM (active)
Cells [2]
  EC50: 0.08 µM (active)
[3]
  EC50: 0.083 µM (active)
[4]
  EC50: 8.65 µM (active)
Paired box protein Pax-8
  AC50: < 0.26 µM (active)
[5]
  EC50: < 0.1 µM (active)
[6]
  EC50: < 0.1 µM (active)
[7]
  EC50: < 0.1 µM (active)
[8]
  EC50: 0.33 µM (active)

## CCOC1Cc2ccccc2N(C(N)=O)c2ccccc21 (stereo not given)
[9]
  EC50: > 100 µM (not active)

## CCc1c(C(=O)O)[nH]c2ccc(Br)cc12
[10]
  IC50: 6.41 µM (active)
Cytochrome P450 2C19
  AC50: 11.2 µM (inconclusive)
Cells [11]
  IC50: > 138 µM (inactive)
Major prion protein
  IC50: 5.95 µM (active)
[12]
  IC50: 7.33 µM (active)

## O=C(OCn1ncc(Br)c(Br)c1=O)c1ccc(F)cc1
[13]
  IC50: 18.8 µM (active)
[14]
  IC50: 6.83 µM
Mu-type opioid receptor
  EC50: > 32 µM (inactive)
[15]
  EC50: > 79.4 µM (not active)
[16]
  EC50: > 79.4 µM (inactive)
[17]
  CC50: 9.1 µM (active)
Beta-galactosidase
  EC50: > 31.5 µM (inactive)
[18]
  IC50: 13.6 µM (not active)
[19]
  CC50: 8.69 µM (active)
[20]
  IC50: 10.3 µM (inactive)
[5]
  EC50: 5.79 µM (active)
[21]
  EC50: > 32 µM (inactive)
[22]
  IC50: 5.05 µM (active)
[6]
  EC50: > 120 µM (not active)
[7]
  EC50: > 120 µM (not active)
[23]
  AC50: 2.02 µM (active)
INS1
  AC50: 4.94 µM (active)
Protein RecA
  EC50: 0.473 µM (active)
[24]
  EC50: 72.3 µM (not active)
[25]
  IC50: 1.66 µM (active)

— ChEMBL document CHEMBL1201862, “PubChem BioAssay data set” (2004)
